Test results reported in ChEMBL document CHEMBL4342498, “Design and Discovery of an Orally Efficacious Spiroindolinone-Based Tankyrase Inhibitor for the Treatment of Colon Cancer” (J Med Chem, 2020).
Values after ≈ are worked out from the molar mass of the structure shown. Active and inactive are the calls of the source. No cut-off for these calls is given here.

Assays:
[1] = test system: MDR1; test: Efflux ratio of permeability across basolateral to apical side over apical to basolateral side in MDCK2-MDR1 cells; assay type: ADME, cell-based, Canis lupus familiaris; conditions: dog, MDCK-MDR1
[2] = target: T1, Tankyrase 1/2 (Homo sapiens) (UniProt Q9H2K2+O95271); test: Inhibition of TNKS/TNKS2-mediated WNT/beta-catenin signaling pathway in human COLO320DM cells assessed as reduction in beta-catenin expression at 0.33 uM measured after 16 hrs by Western blot analysis; assay type: cell-based
[3] = Stability in mouse liver microsomes assessed as parent compound remaining at 1 uM measured after 60 mins in presence of NADPH by LC-MS/MS analysis; assay type: ADME, Microsome; conditions: read-out: Stability
[4] = Stability in human liver microsomes assessed as parent compound remaining at 1 uM measured after 60 mins in presence of NADPH by LC-MS/MS analysis; assay type: ADME, Microsome; conditions: read-out: Stability
[5] = target: T2, Poly [ADP-ribose] polymerase tankyrase-2 (Homo sapiens, UniProt Q9H2K2); test: Inhibition of recombinant human N-terminal TEV cleavage site-fused/FLAG-poly his-tagged TNKS2 ARC5-SAM-PARP domain (613 to 1166 residues) expressed in Escherichia coli assessed as reduction in auto-PARylation preincubated for 10 mins followed by biotinylated-NAD+ addition and measured after 45 mins by ELISA
T2 sequence (Q9H2K2 whole entry): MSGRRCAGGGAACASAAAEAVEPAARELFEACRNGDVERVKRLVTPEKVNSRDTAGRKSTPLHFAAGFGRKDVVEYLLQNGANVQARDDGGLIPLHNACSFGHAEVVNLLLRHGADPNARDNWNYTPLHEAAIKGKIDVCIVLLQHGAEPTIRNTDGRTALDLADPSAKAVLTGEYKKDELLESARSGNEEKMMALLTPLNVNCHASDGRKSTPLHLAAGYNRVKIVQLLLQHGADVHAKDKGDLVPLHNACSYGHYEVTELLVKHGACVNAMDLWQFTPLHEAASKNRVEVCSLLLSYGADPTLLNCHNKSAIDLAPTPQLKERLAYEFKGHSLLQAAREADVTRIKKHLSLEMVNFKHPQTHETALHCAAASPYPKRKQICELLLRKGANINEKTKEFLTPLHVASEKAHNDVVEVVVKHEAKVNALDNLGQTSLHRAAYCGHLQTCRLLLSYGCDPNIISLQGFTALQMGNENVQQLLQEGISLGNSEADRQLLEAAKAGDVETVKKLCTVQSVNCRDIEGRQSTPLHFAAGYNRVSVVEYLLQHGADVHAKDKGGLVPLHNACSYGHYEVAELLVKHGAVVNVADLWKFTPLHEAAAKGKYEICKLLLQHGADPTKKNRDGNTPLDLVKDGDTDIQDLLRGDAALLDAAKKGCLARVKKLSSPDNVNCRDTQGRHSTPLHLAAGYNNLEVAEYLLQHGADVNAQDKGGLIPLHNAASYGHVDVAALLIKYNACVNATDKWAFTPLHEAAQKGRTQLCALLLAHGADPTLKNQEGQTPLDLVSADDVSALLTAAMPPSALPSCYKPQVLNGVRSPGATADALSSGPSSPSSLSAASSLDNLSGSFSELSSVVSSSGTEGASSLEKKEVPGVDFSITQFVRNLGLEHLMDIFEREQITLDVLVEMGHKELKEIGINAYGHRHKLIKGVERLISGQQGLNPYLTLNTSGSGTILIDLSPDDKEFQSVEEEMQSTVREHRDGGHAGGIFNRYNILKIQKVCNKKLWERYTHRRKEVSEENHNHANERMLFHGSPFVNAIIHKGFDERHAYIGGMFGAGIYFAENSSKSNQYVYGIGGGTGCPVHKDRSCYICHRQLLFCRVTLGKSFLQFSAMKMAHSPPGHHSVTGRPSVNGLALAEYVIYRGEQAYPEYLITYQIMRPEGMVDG

[6] = Efflux ratio of permeability across basolateral to apical side over apical to basolateral side in MDCK2 cells; assay type: ADME, cell-based, Canis lupus familiaris, MDCK-II; conditions: dog, mdck
[7] = target: T3, Tankyrase 1/2 (Homo sapiens, UniProt Q9H2K2+O95271)
T3 sequence (Q9H2K2 whole entry): T2 sequence (Q9H2K2 whole entry)
T3 sequence (O95271 whole entry): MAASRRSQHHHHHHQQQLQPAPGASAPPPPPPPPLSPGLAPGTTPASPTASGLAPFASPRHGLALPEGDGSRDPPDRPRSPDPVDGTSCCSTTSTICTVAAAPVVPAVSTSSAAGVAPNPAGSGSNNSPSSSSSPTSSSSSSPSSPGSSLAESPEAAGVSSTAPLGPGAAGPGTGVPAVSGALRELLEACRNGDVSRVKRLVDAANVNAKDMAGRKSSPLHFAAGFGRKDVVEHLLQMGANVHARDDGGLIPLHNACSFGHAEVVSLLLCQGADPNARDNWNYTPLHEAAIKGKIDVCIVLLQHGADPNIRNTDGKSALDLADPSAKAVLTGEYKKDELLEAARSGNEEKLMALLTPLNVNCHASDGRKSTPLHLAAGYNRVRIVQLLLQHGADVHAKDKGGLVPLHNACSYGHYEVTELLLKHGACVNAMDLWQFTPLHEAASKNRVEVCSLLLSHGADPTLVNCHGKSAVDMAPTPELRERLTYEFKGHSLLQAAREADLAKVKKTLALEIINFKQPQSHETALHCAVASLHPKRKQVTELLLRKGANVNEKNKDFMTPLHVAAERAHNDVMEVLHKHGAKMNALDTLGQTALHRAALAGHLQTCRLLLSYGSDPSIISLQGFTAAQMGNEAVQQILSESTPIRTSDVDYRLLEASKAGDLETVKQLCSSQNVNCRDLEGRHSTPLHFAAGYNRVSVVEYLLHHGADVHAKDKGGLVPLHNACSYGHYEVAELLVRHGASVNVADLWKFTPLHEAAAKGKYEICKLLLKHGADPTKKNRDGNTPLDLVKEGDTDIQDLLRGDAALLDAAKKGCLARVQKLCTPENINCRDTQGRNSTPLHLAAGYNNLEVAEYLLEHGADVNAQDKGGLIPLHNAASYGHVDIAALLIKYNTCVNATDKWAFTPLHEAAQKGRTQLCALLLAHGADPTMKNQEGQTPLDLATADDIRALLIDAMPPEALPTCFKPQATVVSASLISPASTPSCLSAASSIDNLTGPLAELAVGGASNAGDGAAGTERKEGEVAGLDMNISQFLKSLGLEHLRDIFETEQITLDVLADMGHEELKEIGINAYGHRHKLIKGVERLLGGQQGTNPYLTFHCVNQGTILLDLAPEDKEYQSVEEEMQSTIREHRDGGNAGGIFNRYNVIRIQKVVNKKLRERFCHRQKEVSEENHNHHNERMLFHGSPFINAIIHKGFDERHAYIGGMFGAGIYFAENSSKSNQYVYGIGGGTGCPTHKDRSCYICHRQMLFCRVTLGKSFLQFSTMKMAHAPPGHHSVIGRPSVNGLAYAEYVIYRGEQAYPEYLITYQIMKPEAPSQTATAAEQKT
Description: Inhibition of TNKS/TNKS2 (unknown origin) expressed in human DLD1 cells assessed as reduction in Wnt-signaling measured after 24 hrs by TCF-luciferase reporter gene assay

[8] = Net efflux ratio of permeability across basolateral to apical side over apical to basolateral side in MDCK2-MDR1 cells to MDCK2 cells; assay type: ADME, cell-based, Canis lupus familiaris; conditions: dog, mdck
[9] = test system: COLO 320DM; test: Antiproliferative activity against human COLO320DM cells assessed as inhibition of cell growth measured after 4 days by CellTiter-Glo assay; assay type: functional; conditions: 96 h
[10] = target: T3, Tankyrase 1/2; conditions: hek293
Description: Inhibition of TNKS/TNKS2 (unknown origin) expressed in HEK293 cells assessed as reduction in Wnt-signaling measured after 24 hrs by TCF-luciferase reporter gene assay

[11] = target: T1, Tankyrase 1/2 (Homo sapiens); test: Inhibition of TNKS/TNKS2-mediated WNT/beta-catenin signaling pathway in human COLO320DM cells assessed as upregulation of AXIN2 expression at 0.33 uM measured after 16 hrs by Western blot analysis; assay type: cell-based
[12] = target: T4, Poly [ADP-ribose] polymerase tankyrase-1 (Homo sapiens, UniProt O95271)
T4 sequence (O95271 whole entry): T3 sequence (O95271 whole entry)
Description: Inhibition of recombinant human N-terminal TEV cleavage site-fused/FLAG-poly his-tagged TNKS SAM-PARP domain (1024 to 1327 residues) expressed in Escherichia coli assessed as reduction in auto-PARylation preincubated for 10 mins followed by biotinylated-NAD+ addition and measured after 45 mins by ELISA

[13] = physchem; conditions: phosphate buffered saline, pH 7.4
[14] = Stability in rat liver microsomes assessed as parent compound remaining at 1 uM measured after 60 mins in presence of NADPH by LC-MS/MS analysis; assay type: ADME, Microsome; conditions: read-out: Stability
[15] = Stability in mouse liver microsomes assessed as parent compound remaining at 1 uM measured after 30 mins in presence of NADPH by LC-MS/MS analysis; assay type: ADME, Microsome; conditions: read-out: Stability
[16] = Protein binding in human plasma assessed as unbound fraction at 1 uM measured after 24 hrs by LC-MS/MS analysis; assay type: ADME, cell-free
[17] = Stability in rat liver microsomes assessed as parent compound remaining at 1 uM measured after 30 mins in presence of NADPH by LC-MS/MS analysis; assay type: ADME, Microsome; conditions: read-out: Stability
[18] = Permeability of the compound measured after 4 hrs by PAMPA; assay type: ADME; conditions: read-out: permeability
[19] = Stability in human liver microsomes assessed as parent compound remaining at 1 uM measured after 30 mins in presence of NADPH by LC-MS/MS analysis; assay type: ADME, Microsome; conditions: read-out: Stability
[20] = Protein binding in mouse plasma assessed as unbound fraction at 1 uM measured after 24 hrs by LC-MS/MS analysis; assay type: ADME, cell-free

SMILES	efflux ratio [1]	inhibition [2]	remaining at 1 h, 1 µM [3]	remaining at 1 h, 1 µM [4]	IC50 [5]	efflux ratio [6]	IC50 [7]	Ratio [8]	GI50 [9]	IC50 [10]	inhibition [11]	IC50 [12]	solubility at 1 h, 200 µM [13]	remaining at 1 h, 1 µM [14]	remaining at 0.5 h, 1 µM [15]	fraction unbound at 24 h, 1 µM [16]	remaining at 0.5 h, 1 µM [17]	Papp at 4 h [18]	remaining at 0.5 h, 1 µM [19]	fraction unbound at 24 h, 1 µM [20]
CN1CCCc2c1nc(N1CCC3(CC1)C(=O)N(C)c1cc(OCC(=O)O)cc(F)c13)[nH]c2=O	0.3	inactive	93.3%	97.6%	9.9 nM	0.3	1877 nM	1	300 nM	507 nM	inactive	4.2 nM	98.4 µg/mL (≈ 209 µM)							
CN1CCCc2c1nc(N1CCC3(CC1)C(=O)N(CCO)c1cc(F)cc(F)c13)[nH]c2=O	24.6		2 to 8.5%	6.3%	13.5 nM	6.4	3.9 nM	3.8	250 nM	1.1 nM		7.5 nM	82.9 µg/mL (≈ 186 µM)	0.5%	21.2%	0.022	2%	3 ×10⁻⁶ cm/s	21%	0.083
CN1CCCc2c1nc(N1CCC3(CC1)CN(CCO)c1cc(F)cc(F)c13)[nH]c2=O			0.2%	1.4%	21.4 nM		7 nM		250 nM	2.7 nM		13.6 nM	40.2 µg/mL (≈ 93.2 µM)	0.2%	0.3%	0.005	0.4%	3.3 ×10⁻⁶ cm/s	7.4%	0.002
